Earlier results in patent US9248110B2, “Compositions and methods of treating and preventing lung cancer and lymphangioleiomyomatosis” (priority 2010, dated 2016).
Where two headings read alike, the source gives them in different places.

System: Lewis lung LLC1 cells
Settings: orally administered

**Q.** Which results are given for `CN(C)C(=N)N=C(N)N` [metformin]?
**A.** tumor growth (mice fed a high-energy diet): reduce tumor growth; tumor growth (mice on a control diet): no effect on tumor growth
